Reference: patent US20030143282A1, “Adenosine A3 receptor agonist” (priority 2002, published 2003)

How the values were obtained:
[1] = Myeloprotective effect in mice treated with cyclophosphamide; format: in vivo; conditions: adenosine administered orally or intraperitoneally, after cyclophosphamide
Protocol: The myeloprotective effect of the various preparations were examined by injecting mice intraperitoneally with 50 mg/kg body weight of cyclophosphamide. Each group contained 10 mice and experiments were repeated at least 4 times. Adenosine, MCM (4 activity units) or MCM+ADA (4 activity units) were each orally administered 48 h and 72 h following the chemotherapy. After 120 h blood samples were withdrawn. The number of leukocytes and percent of neutrophils were evaluated.

B16-F10 melanoma cells = experiment: Melanoma lung metastatic foci growth in mice inoculated with B16-F10 cells; format: in vivo, C57BL/6J mice; conditions: adenosine 268 μg/kg body weight, administered orally or intraperitoneally
Protocol: The B-16-F10 murine melanoma cell line was used in the in vitro and in vivo experiments. Cells were maintained in RPMI medium containing 10% FBS, penicillin and streptomycin. They were transferred twice weekly to a freshly prepared medium. To examine the effect of the different preparations on tumor cell growth, B16-F10 (2.5×10^5) melanoma cells were intravenously inoculated to C57BL/6J mice. Each group contained 20 mice and experiments were repeated at least 4 times. Mice were treated orally according to the following protocol starting one day after tumor inoculation: 1. Adenosine—268 μg/kg body weight 2. MCM 4AU twice daily. 3. MCM+ADA, 4AU twice daily. 4. Vehicle—twice daily. An additional group of mice was treated daily intraperitoneally with adenosine (268 μg/kg body weight). Mice were sacrificed after fifteen days, lungs removed and black metastatic foci were counted using a Dissecting Microscope.

bone marrow cells = experiment: [3H]-thymidine incorporation assay, bone marrow cell proliferation; format: cell-based, C57BL/6J mice; conditions: 0.1, 0.05 and 0.001 μM
Protocol: Bone marrow cells were obtained from the femur of C57BL/6J mice. Cells were disaggregated by passing through a 25 G needle.
(§1) [^3H]-tymidine incorporation assay was used to evaluate cell growth. 1.5×10^4/ml B-16-F10 melanoma or 3×10^5/ml bone marrow cells were cultured in RPMI medium containing 10% FBS in 96 well microtiter plates. These cultures were incubated in the presence of MCM in a concentration of 50%. Since MCM was prepared in PBS, cultures containing tumor or bone marrow cells suspended in 50% PBS served as controls. During the last 18 hours of incubation, each well was pulsed with 1 μCi [^3H]-thymnidine. The cells were harvested and the [^3H]-thymnidine uptake was determined in an LKB liquid scintillation counter (LKB, Piscataway, N.J., USA).
(§2) Results were expressed as % of cell proliferation inhibition or stimulation, calculated according to the following formula: [formula]
where A represents the cell count of sample and B represents the cell count of the control. According to this calculation control values are 0% of inhibition or stimulation.
To eliminate adenosine from MCM preparations, adenosine deaminase (ADA) (Sigma, Chemical Co. St. Louis, Mo., USA) was added to the MCM for 1 hour. […]
(§3) In this set of experiments, the question whether the effect of MCM+ADA on tumor or normal cells was mediated through A3AR was examined. […] [^3H]-thymidine uptake was determined as described above.

B-16-F10 melanoma cells = experiment: [3H]-thymidine incorporation assay, tumor cell proliferation; format: cell-based, murine; conditions: B16-F10 cells; 0.1, 0.05 and 0.001 μM
Protocol: The B-16-F10 murine melanoma cell line was used in the in vitro and in vivo experiments. Cells were maintained in RPMI medium containing 10% FBS, penicillin and streptomycin. They were transferred twice weekly to a freshly prepared medium.
as §1, §2
where A represents the cell count of sample and B represents the cell count of the control. According to this calculation control values are 0% of inhibition or stimulation. […]
as §3

Compound	chemoprotective effect [1]	inhibition of tumor growth (B16-F10 melanoma cells)	effect of MRS-1220 by itself on proliferation (bone marrow cells)	effect of MRS-1220 by itself on proliferation (B-16-F10 melanoma cells)
Nc1ncnc2c1ncn2[C@@H]1O[C@H](CO)[C@@H](O)[C@H]1O [Adenosine, adenosine]	failed to inhibit tumor growth or act as a chemoprotective agent	failed to inhibit tumor growth	–	–
O=C(Cc1ccccc1)Nc1nc2ccc(Cl)cc2c2nc(-c3ccco3)nn12 [MRS-1220, 9-chloro-2-(2-furanyl)-5-[(phenylacetyl)amino] [1,2,4,]-triazolo[1,5-c] quinazoline]	–	–	no effect	no effect
